Data from PubChem BioAssay AID540258 (Broad Institute, 2011).
Active and inactive are the calls of the source.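 Rule for the calls: active = fitted curve reaching 40% activation at or below the top valid dose tested; inconclusive = flat curve at 30 to 70% activation, or poor fit; inactive = the rest.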

Test system: SK-MEL-5 TRPM1 promoter luciferase reporter, 24 h
Test: activation of TRPM1 promoter luciferase in melanoma cells – SK-MEL-5 cells, cherry-pick samples, dose response (AID 540258);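 note: potency for activators that raise TRPM1 promoter luciferase signal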

Row | SMILES | AC40
1 | CCc1ccc2[nH]c3nc(C)cc(C)c3c(=O)c2c1 | 4 µM
2 | COc1ccc(-c2cc(=NCCC(=O)O)c3cc(C)ccc3o2)cc1 | 3.33 µM
3 | FC(F)Oc1ccc(N=C2SCC3CCCCN23)cc1 (centres undefined) | 2.53 µM
4 | O=C(N/N=C/c1ccc(Cl)cc1Cl)c1cccc(F)c1 | 1.95 µM
5 | Cc1ccc(Nc2ncc3c(n2)CC(C)(C)CC3=O)cc1 | 0.65 µM
6 | CC1CCN(C(=O)c2cc(-c3ccccc3O)on2)CC1 | 0.383 µM
7 | O=C(CC1CCCC1)Nc1ccc(Br)cc1 | 11.6 µM
8 | Cc1cc(C(=O)CN2C(=O)NC3(CCCCC3C)C2=O)c(C)n1Cc1cccs1 (centres undefined) | 8.17 µM
9 | COc1ccc2c(c1)CCc1c(C(=O)NCC(C)C)noc1-2 | 0.867 µM
10 | COc1ccccc1NC(=O)Nc1ccc(C(=O)N2CCCCC2)cc1 | 16.6 µM
11 | CN1CCSc2ccc(C(=O)Nc3cc(F)ccc3F)cc21 | 0.465 µM
12 | Cc1cc2cc(OCc3ccccc3)ccc2n1C | 0.737 µM
13 | CC(=O)c1ccc2oc3ccccc3c(=O)c2c1 | 10.1 µM
14 | CC1(C)CC(/C=C/c2ccccc2)=Nc2ccccc2N1 | 20.9 µM
15 | Cc1cccc(NC(=O)c2sc3nc(N)c(C#N)cc3c2N)c1 | 2.61 µM
16 | CN(C)C(CNC(=O)c1cc2ccccc2oc1=O)c1ccccc1 (centres undefined) | 5.72 µM
17 | Nc1ccc(O)c2c(=O)cc(-c3ccccc3Cl)oc12 | 1.13 µM
18 | CCc1nc2oc3ccccc3c(=O)c2cc1C(=O)OC | 5.7 µM
19 | CCc1ccc(C(=O)N/N=C(\C)c2cccnc2)s1 | 8.9 µM
20 | CCCCCc1ccc(-c2ccc(OC)cc2)nc1 | 1.38 µM
21 | CNC(=O)c1ccc(-c2cc3onc(-c4ccccc4)c3c(=O)n2C)cc1 | 6.96 µM
22 | Cc1csc(NC(=O)Cc2c[nH]c3ccccc23)n1 | 27.3 µM
23 | COc1cc(OC)cc(-c2cc3cc(F)ccc3cn2)c1 | 1.71 µM
24 | O=C1c2ccccc2NC(c2cccc(Cl)c2)N1N=C1CCCCCC1 (centres undefined) | > 35 µM (inactive)

Row | SMILES | AC40
25 | Cc1cccc(-c2nnc3sc(-c4ccccc4)nn23)c1 | 12.2 µM
26 | CCCc1ccc(OCc2nc(-c3ccc(NC(=O)c4cccs4)cc3)no2)cc1 | 14.2 µM
27 | O=C(N/N=C/c1ccccn1)c1c[nH]c2ccccc12 | 6.49 µM
28 | c1csc(-c2nc(N3CCCCC3)no2)c1 | 1.44 µM
29 | Clc1ccc(SCc2cn3ccccc3n2)cc1 | 2.69 µM
30 | CC(C)CNC(=O)C1CCN(Cc2ccc(OCc3ccccc3)cc2)CC1 | 20.6 µM
31 | COc1ccc(C(=S)Nc2ccc(C)cc2)cc1 | 2.65 µM
32 | C=CCc1c(C)nc(-c2ccccc2)nc1N/N=C/c1ccncc1 | 7.06 µM
33 | O=C(Nc1ccc2c(c1)CCC2)c1c(F)cccc1Cl | 1.84 µM
34 | CC(=O)c1cccc(NC(=O)c2cc3nc(C)cc(C)n3n2)c1 | 2.7 µM
35 | COC(=O)c1ccc2[nH]c(C3(O)CCCCC3)c(C)c2c1 | 10.3 µM
36 | O=C(Cn1c(/C=C/c2ccccc2)nc2ccccc21)Nc1ccc(F)cc1 | 6.45 µM
37 | COc1ccccc1Nc1nc(C)cs1 | 22.6 µM
38 | C/C(=C\C(=O)c1cccnc1)Nc1ccc(C)c(C)c1 | 6.87 µM
39 | C(=C\c1nnc(-c2cccs2)o1)/c1ccccc1 | 0.734 µM
40 | COc1ccccc1N1CCN(C2=Nc3cccc4cccc2c34)CC1 | 3 µM
41 | Brc1ccccc1-n1nnc(-c2nccs2)n1 | 2.52 µM
42 | Fc1ccccc1CSc1nnc(-c2ccccc2)o1 | 0.935 µM
43 | Cc1cc2ncc(-c3ccc(Cl)cc3)c(N)n2n1 | > 35 µM (inactive)
44 | Cc1ccc(-n2nnc3ccccc3c2=O)cc1C | 2.62 µM
45 | CCc1ccc(N2Cc3ccccc3C2)cc1 | 2.25 µM
46 | Cc1nn2c(-c3ccccc3)ccnc2c1-c1ccccc1 | 4.34 µM
47 | O=C1OC(c2ccccc2)=C/C1=C/N1CCCCC1 | 2.12 µM
48 | C=CCC1(CC=C)CCCN1C(=O)C1CCC(=O)N(CCc2ccccc2)C1 (centres undefined) | 7.52 µM

Row | SMILES | AC40
49 | O=c1nc(/C=C/c2ccc(O)c(O)c2)oc2ccccc12 | 6.32 µM
50 | COc1cc(C=O)ccc1OCc1cccc(Br)c1 | 5.93 µM
51 | COc1cccc(C(=O)Nc2nnc(-c3ccccc3)s2)c1 | 3.57 µM
52 | Cc1nc2ccc(NC(=O)Cc3c(F)cccc3Cl)cc2s1 | 3.66 µM
53 | COc1ccc(-c2c(C)nc3c(-c4ccsc4)cnn3c2N)cc1 | 0.302 µM
54 | COc1ccc(/C=C2\SC(=O)N(CCNC(=O)C3CC4C=CC3C4)C2=O)cc1 (centres undefined) | 1.39 µM
55 | COc1ccc(-c2cn3cccc(C)c3n2)cc1F | 0.565 µM
56 | CCC(=O)N1CCc2nc(-c3ccccc3)sc2C1 | 6.73 µM
57 | O=C(NC1CC1)c1sc2cc(Cl)ccc2c1Cl | 4.59 µM
58 | O=C(NCCc1cccs1)c1ccc(Cl)c(Cl)c1 | 3.47 µM
59 | O=C(Nc1ccc(F)cc1Cl)c1ccc2c(=O)n3c(nc2c1)CCC3 | 3.5 µM
60 | CC(C)(C)n1ncc2c(=O)n(CC(=O)c3ccccc3)cnc21 | 2.87 µM
61 | FC(F)(F)c1cnc(-c2cnc(-c3cccnc3)nc2)c(Cl)c1 | 3.02 µM
62 | Cc1ccc(NC(=O)Nc2ccc3c(c2)OCO3)c(OC(F)F)c1 | 2.14 µM
63 | Nc1ccc(Oc2cc(N)cc(Oc3ccccc3)c2)cc1 | 4.99 µM
64 | Cc1ccsc1/C=N/NC(=O)Nc1ccccc1 | 1.07 µM
65 | COC(=O)c1c(-c2ccc(S(C)(=O)=O)cc2)sc2ccc(OC)cc12 | 2.76 µM
66 | C/C(=N/OCc1ccc(Br)cc1)c1ccccn1 | 0.336 µM
67 | O=C(Nc1ccc(Br)cc1F)c1ccc2nsnc2c1 | 1.31 µM
68 | Cc1ccnc(NC(=O)C2CC(=O)N(Cc3ccccc3)C2)c1 (centres undefined) | 5.34 µM
69 | Cc1ccc(Sc2cnc3ccccc3n2)cc1 | 1.43 µM
70 | Clc1ccc(-c2ccc(SCc3ccccn3)nn2)cc1 | 2.39 µM
71 | CC(NC(=O)c1cc(COc2ccccc2)on1)c1nccs1 (centres undefined) | 0.721 µM
72 | N#Cc1ccc(C(=O)NC2CCCCCCC2)cc1 | 3.62 µM

Row | SMILES | AC40
73 | CCC(=O)c1ccc(OCc2ccccc2)c(OC)c1 | 2.57 µM
74 | COc1ccc(/C=C2\CCn3c2nc2ccccc2c3=O)cc1OC | 0.899 µM
75 | COc1cccc2sc3ccc(C#CC4(O)CCCCC4)cc3c(=O)c12 | 2.94 µM
76 | c1ccc2oc(CCc3nc4ccccc4o3)nc2c1 | > 35 µM (inactive)
77 | COC(=O)Cn1c(C)nc2c(sc3nc(C)cc(C)c32)c1=O | 2.35 µM
78 | CSc1nc(N)n2nc(-c3ccc(Cl)cc3)cc2n1 | 0.727 µM
79 | c1cc(-c2cc3cc4c(cc3cn2)OCO4)cs1 | 2.12 µM
80 | COC(=O)c1ccc(CSC2=NCCS2)cc1 | 3.38 µM
81 | Clc1ccc(-c2cnnc(-c3ccccn3)n2)cc1 | 1.71 µM
82 | CCc1c(C(=O)Nc2ccc(C)c(C)c2)[nH]c(C)c1C(C)=O | 5.17 µM
83 | Cc1nnc(NC(=O)c2ccc(N3CCCC3=O)cc2)s1 | > 35 µM (inactive)
84 | CC(C)(C)c1cc(NC(=O)Nc2ccccc2)no1 | 0.864 µM
85 | COc1ccc(NC(=O)c2ccc3c(c2)OCO3)cc1Cl | 0.642 µM
86 | COc1ccc(OCc2cc(C(=O)NC(C)c3cnn(C)c3)no2)c(Cl)c1 (centres undefined) | 12.3 µM
87 | CCCCN(C(=O)Cc1cccs1)c1nnc(-c2cccnc2)s1 | 5.05 µM
88 | COCc1nn2c(N)c(-c3ccccc3)cnc2c1-c1ccccc1 | 2.62 µM
89 | COc1ccc2cc(-c3nc4ccccc4n3C)c(=O)oc2c1 | 1.92 µM
90 | COc1ccc(-c2csc(-n3cccn3)n2)cc1 | 1.1 µM
91 | CN(CCC#N)C(=O)c1cc2c(s1)-c1ccccc1SC2 | 3.23 µM
92 | CC(C)(C)C(=O)OCc1nc(-c2ccc(F)cc2)cs1 | 11.3 µM
93 | Cc1noc(N)c1C(=O)Nc1ccc(C(C)(C)C)cc1 | 1.66 µM
94 | Cc1nc(N2CCN(S(=O)(=O)c3ccccc3)CC2)c2cc(-c3ccccc3)sc2n1 | 22.9 µM
